Test results taken from patent US20230181464A1, “COMPOSITIONS FOR DELIVERY OF BIOACTIVE AGENTS INTO HAIR FOLLICLES” (FOLLICLE PHARMA LTD, priority 2020, published 2023).
Read-outs that look alike come from different tables or passages of the source.

Tests used:
[1] = cited from earlier work
[2] = system: DHT (dihydrotestosterone); experiment: Skin DHT expression at Day 28 (Example 3); format: in vivo, mice
Protocol: (§1) Hair on the backs of C57bl mice were shaved with electric clippers and subsequent application of ‘hair removal cream’ (Veet, Oxy Reckit Benckiser, Chartes, France). Twenty-four hours following hair removal, mice received daily subcutaneous injections of Testosterone, 1 mg/mouse, at the neck region. Twenty-four hours after the first Testosterone injection mice started receiving treatment as per Table 6 below. Topical formulations were applied onto the entire shaved back skin. The hair cover was analyzed by ImagJ software.

[3] = system: C57bl mice; experiment: Testosterone-induced alopecia in mice, hair cover over 28 d (Example 3); format: in vivo; conditions: oral once daily
Protocol: as §1

[4] = Blood concentration of dutasteride at Day 28 (Example 3); format: in vivo; conditions: C57bl, mice, Oral, daily dose 5-10 ug/mouse, read-out: Blood conc (ng/ml) of dutasteride
[5] = Human, 0.5 mg PO, from the literature; cited from earlier work
[6] = system: C57bl mice; experiment: Testosterone-induced alopecia model in mice, hair cover (Example 2); format: in vivo; conditions: oral, 100 uL once daily; testosterone-injected mice
[7] = drug substance listed in Table 16

In the case of `CCOC(=O)c1ccc(C#Cc2ccc3c(c2)C(C)(C)CCS3)nc1` [Tazarotene], the logP [1, 7] is given as “logP 5.6”.
In the case of `O=C(OOC(=O)c1ccccc1)c1ccccc1` [Benzoyl peroxide], the logP [1, 7] is given as “LogP 2.75”.
With `C[C@]12C=CC(=O)N[C@@H]1CC[C@@H]1[C@@H]2CC[C@]2(C)[C@@H](C(=O)Nc3cc(C(F)(F)F)ccc3C(F)(F)F)CC[C@@H]12` [dutasteride] the “DHT expression in the skin (in words)” value ([2]; mice) was “did not exhibit reduced concentrations of DHT in the skin”, the “Mean DHT conc. (nmol/L)/group” value ([2]; skin, oral 5-10 ug/mouse x 1/d) was 22.91 nmol/L and the “Group Mean Hair cover (%)” value ([3]; Study Day 0) was 0.0%. For the same compound, the “Group Mean Hair cover (%)” value ([3]; Study Day 7) was 0.0%, the “Group Mean Hair cover (%)” value ([3]; Study Day 14) was 2.3% and the “Group Mean Hair cover (%)” value ([3]; Study Day 21) was 5.2%. The “Group Mean Hair cover (%)” value ([3]; Study Day 28) was 22.3%, the concentration at 28 day [4] was 39 ng/mL and the “Plasma Concentration of Dutasteride” value [5] was 23.60 ng/mL. The “% hair cover at 21 days” value [6] was 30%.
In the case of `C1=C/COCc2cc(ccc2OCCN2CCCC2)Nc2nccc(n2)-c2cccc(c2)COC/1` [Pacritinib], the logP [1, 7] is listed as “logP 4.58”.
In the case of `O=C(Nc1c(Cl)cncc1Cl)c1ccc(OC(F)F)c(OCC2CC2)c1` [Roflumilast], the logP [1, 7] is given as “logP 4.47”.
In the case of `N#CC[C@H](C1CCCC1)n1cc(-c2ncnc3[nH]ccc23)cn1` [Ruxolitinib], the logP [1] is given as “Ruxolitinib logP, 2.48”.
For `CC(C)(C)NC(=O)[C@H]1CC[C@H]2[C@@H]3CC[C@H]4NC(=O)C=C[C@]4(C)[C@H]3CC[C@]12C` [Oral finasteride, finasteride], the “% hair cover at 21 days” value [6] was 20%.
In the case of `CC(=O)Oc1c(C)c(C)c2c(c1C)CCC(C)(CCC[C@H](C)CCC[C@H](C)CCCC(C)C)O2` (some centres unmarked) [Tocopherol acetate], the logP [1, 7] is listed as “acetate LogP 10.8”.
